Converted amounts (≈) assume the structure as drawn.
Test: in vitro
Conditions: human

SMILES | CC50 [µg/mL] | CC50 (Picorana CC50) [µg/mL]
CCC(=O)N[C@@]12C(=O)c3c(N)cccc3[C@]1(OC(=O)CC)Oc1cc(C(C)C)ccc12 [Example 94, (4bR,9bS)-1-Amino-7-isopropyl-10-oxo-9b-propionamido-9b,10-dihydro-4bH-indeno[1,2-b]benzofuran-4b-yl propionate] | 58.1 (≈ 137 µM) | 42.4 (≈ 100 µM)
CC(C)c1ccc2c(c1)OC1(O)c3cccc(N4CCCCC4)c3C(=O)C21O (stereo not shown) [Example 141, 4b,9b-Dihydroxy-7-isopropyl-1-piperidinyl-4bH-benzo[d]indeno-[1,2-b]furan-10(9bH)-one] | – | 3.47 (≈ 9.14 µM)
CC(C)c1cc(C(C)C)c2c(c1)C1(N)C(=O)c3ccccc3C1(O)O2 (stereo not shown) [Example 68, 9b-Amino-4b-hydroxy-6,8-diisopropyl-4b,9b-dihydro-5-oxa-indeno[2,1-a]inden-10-one] | – | 8.94 (≈ 26.5 µM)
Cc1onc(-c2c(F)cccc2Cl)c1C(=O)NC12C(=O)c3c(N)cccc3C1(O)Oc1cc(C(C)C)ccc12 (stereo not shown) [Example 228, N-(1-Amino-4b-hydroxy-7-isopropyl-10-oxo-9b,10-dihydro-4bH-indeno[1,2-b]benzofuran-9b-yl)-3-(2-chloro-6-fluorophenyl)-5-methylisooxazole-4-carboxamide] | > 10 | 24.1 (≈ 43.9 µM)
CC(C)c1ccc2c(c1)OC1(O)c3ccccc3C(=O)C21NC(=O)c1cc(=O)[nH]c(=O)[nH]1 (stereo not shown) [Example 224, N-(4b-Hydroxy-7-isopropyl-10-oxo-9b,10-dihydro-4bH-benzo[d]indeno[1,2-b]furan-9b-yl)-2,6-dioxo-1,2,3,6-tetrahydropyrimidine-4-carboxamide] | > 10 | > 50
CCCCC(=O)NC12C(=O)c3c(N)cccc3C1(O)Oc1cc(C(C)C)ccc12 (stereo not shown) [Example 78, Pentanoic acid (1-amino-4b-hydroxy-7-isopropyl-10-oxo-4b,10-dihydro-5-oxa-indeno[2,1-a]inden-9b-yl)-amide] | 20.6 (≈ 52.3 µM) | 47.7 (≈ 121 µM)
CC(C)c1ccc2c(c1)OC1(O)c3cccc(N)c3C(=O)C21NC(=O)c1ccc(N)o1 (stereo not shown) [Example 232, 5-amino-N-(1-amino-4b-hydroxy-7-isopropyl-10-oxo-9b,10-dihydro-4bH-indeno[1,2-b]benzofuran-9b-yl)furane-2-carboxamide] | > 10 | > 50
CO/N=C1/c2ccccc2C2(O)Oc3cc(C(C)C)ccc3C12O (stereo not shown) [Example 88, 4b,9b-Dihydroxy-7-isopropyl-4bH-indeno[1,2-b]benzofuran-10(9bH)-one O-methyl oxime] | – | 8.16 (≈ 25.1 µM)
CC(C)c1ccc2c(c1)OC1(O)c3cccc(N4CCOCC4)c3C(=O)C21O (stereo not shown) [Example 142, 4b,9b-Dihydroxy-7-isopropyl-1-morpholinyl-4bH-benzo[d]indeno[1,2-b]furan-10(9bH)-one] | – | 18.7 (≈ 49 µM)
CC(C)c1ccc2c(c1)OC1(O)c3cccc(N4CCC(O)CC4)c3C(=O)C21O (stereo not shown) [Example 147, 4b,9b-Dihydroxy-1-(4-hydroxypiperidin-1-yl)-7-isopropyl-4bH-benzo[d]indeno[1,2-b]furan-10(9bH)-one] | – | 32.9 (≈ 83.1 µM)
CC(C)c1ccc2c(c1)OC1(O)c3ccccc3C(=O)C21NC(=O)c1ccccn1 (stereo not shown) [Example 218, N-(4b-Hydroxy-7-isopropyl-10-oxo-9b,10-dihydro-4bH-indeno[1,2-b]benzofuran-9b-yl)picolinamide] | > 10 | 8.49 (≈ 21.2 µM)
CC(C)c1ccc2c(c1)OC1(O)c3ccccc3C(=O)C21N=C=O (stereo not shown) [Example 69, 4b-Hydroxy-9b-isocyanato-7-isopropyl-4b,9b-dihydro-5-oxa-indeno[2,1-a]-inden-10-one] | – | 70 (≈ 218 µM)
CC(C)c1ccc2c(c1)OC1(O)c3cccc(N(C)C)c3C(=O)C21O (stereo not shown) [Example 151, 1-(Dimethylamino)-4b,9b-dihydroxy-7-isopropyl-4bH-benzo[d]indeno[1,2-b]-furan-10(9bH)-one] | – | 1.52 (≈ 4.48 µM)
CC(C)c1ccc2c(c1)OC1(O)c3ccccc3C(=O)C21NC(=O)c1ccc(=O)oc1 (stereo not shown) [Example 226, N-(4b-Hydroxy-7-isopropyl-10-oxo-9b,10-dihydro-4bH-benzo[d]indeno[1,2-b]furan-9b-yl)-2-oxo-2H-pyrane-5-carboxamide] | > 10 | 28.2 (≈ 67.5 µM)
CC(C)c1ccc2c(c1)OC1(O)c3ccccc3C(=O)C21N (stereo not shown) [Example 65, 9b-Amino-4b-hydroxy-7-isopropyl-4b,9b-dihydro-5-oxa-indeno[2,1-a]inden-10-one] | – | 18.2 (≈ 61.6 µM)
CCCCC(=O)OC12Oc3cc(C(C)C)ccc3C1(NC(C)=O)C(=O)c1ccccc12 (stereo not shown) [Example 112, 9b-Acetamido-7-isopropyl-10-oxo-9b,10-dihydro-4bH-indeno[1,2-b]benzofuran-4b-yl pentanoate] | – | 42 (≈ 99.6 µM)
CCC(=O)N1c2cc(C)c(C)cc2C2(O)C(=O)c3ccccc3C12O (stereo not shown) [Example 105, 4b,9b-Dihydroxy-7,8-dimethyl-5-propionyl-4b,5-dihydroindeno[1,2-b]indol-10(9bH)-one] | – | > 50
CCC(=O)NC12Oc3cc(C(C)C)ccc3C1(NC(=O)CC)C(=O)c1ccccc12 (stereo not shown) [Example 124] | – | > 50
CC(=O)OC12C(=O)c3ccccc3C1(OC(C)=O)N(C(C)=O)c1cc(C)c(C)cc12 (stereo not shown) [Example 107, 5-Acetyl-7,8-dimethyl-10-oxo-4b,5,9b,10-tetrahydroindeno[1,2-b]indole-4b,9b-diyl diacetate] | – | > 50
CCOP(=O)(NC12C(=O)c3c(N)cccc3C1(O)Oc1cc(C(C)C)ccc12)OCC (stereo not shown) [Example 169, Diethyl (1-amino-4b-hydroxy-7-isopropyl-10-oxo-9b,10-dihydro-4bH-indeno[1,2-b]benzofuran-9b-yl)phosphoamidate] | > 10 | –
CC(=O)N1c2ccccc2C2(N)C(=O)c3ccccc3C12O (stereo not shown) [Example 108, 5-Acetyl-9b-amino-4b-hydroxy-5,9b-dihydro-4bH-indeno[1,2-b]indol-10-one] | – | 1.81 (≈ 6.15 µM)
Cc1ccn2cc(C(=O)NC34C(=O)c5c(N)cccc5C3(O)Oc3cc(C(C)C)ccc34)nc2c1 (stereo not shown) [Example 280, N-(1-Amino-4b-hydroxy-7-isopropyl-10-oxo-9b,10-dihydro-4bH-indeno[1,2-b]benzofuran-9b-yl)-7-methylimidazo[1,2-a]pyridine-2-carboxamide] | > 10 | –
CC(C)c1ccc2c(c1)OC1(O)c3ccccc3/C(=N\N)C21O (stereo not shown) [Example 152, 10-Hydrazono-7-isopropyl-9b,10-dihydro-4bH-benzo[d]indeno[1,2-b]furan-4b,9b-diol] | 10.5 (≈ 33.9 µM) | 0.9 (≈ 2.9 µM)
CC(=O)Nc1ccc([N+](=O)[O-])c2c1C(=O)C1(NC(C)=O)c3ccc(C(C)C)cc3OC21OC(C)=O (stereo not shown) [Example 110, Acetic acid 1,9b-bis-acetylamino-7-isopropyl-4-nitro-10-oxo-9b,10-dihydro-5-oxa-indeno[2,1-a]inden-4b-yl ester] | – | 14.4 (≈ 29.9 µM)
CC(=O)NC12C(=O)c3c(Br)cccc3C1(O)Oc1cc(C(C)C)ccc12 (stereo not shown) [Example 137, N-(1-Bromo-4b-hydroxy-7-isopropyl-10-oxo-9b,10-dihydro-4bH-indeno[1,2-b]benzofuran-9b-yl)acetamide] | – | 40 (≈ 96 µM)
CC(C)c1ccc2c(c1)OC1(O)c3ccccc3C(=O)C21NC(=O)c1cnn(-c2ccccc2)c1C(F)(F)F (stereo not shown) [Example 211] | > 10 | –
